# According to patent publication US6737383B1, “Herbicidal oxadiazolidines” (priority 1999, dated 2004):
# Tests used:
# wild oat = assay: Test E wild oat; format: in vivo, Avena fatua; conditions: Preemergence; for Plant response rating, Wild oat: 0 to 100 scale where 0 is no effect and 100 is complete control
# winter wheat [1] = assay: Test E winter wheat; format: in vivo, Triticum aestivum; conditions: Preemergence
# green foxtail = assay: Test E green foxtail; format: in vivo, Setaria viridis; conditions: Preemergence
# winter wheat [2] = assay: Test E winter wheat; format: in vivo, Triticum aestivum; conditions: Postemergence
# Outline: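 Postemergence: spray at 1–4 leaf stage, soil 60:40 sandy loam:potting mix; solvent + surfactant formulation; greenhouse 21–28 d; visual injury vs untreated controls.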
# crabgrass = assay: Test B pre/postemergence crabgrass; format: in vivo, Digitaria sanguinalis
# Outline: (§1)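 Test chemicals in a non-phytotoxic solvent mixture with surfactant were sprayed preemergence onto planted seeds and postemergence onto plants 2 to 18 cm tall (1- to 4-leaf stage). After twelve to sixteen days in a greenhouse, injury was visually rated against untreated controls from 0 (no effect) to 10 (complete control).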
# winter barley = assay: Test E winter barley; format: in vivo, Hordeum vulgare; conditions: Preemergence
# Italian ryegrass = assay: Test E Italian ryegrass; format: in vivo, Lolium multiflorum; conditions: Preemergence
# purple nutsedge = assay: Test B pre/postemergence purple nutsedge; format: in vivo, Cyperus rotundus
# Outline: as §1
# blackgrass = assay: Test E blackgrass; format: in vivo, Alopecurus myosuroides; conditions: Preemergence
# bamyardgrass = assay: Test B flood test barnyardgrass; format: in vivo, Echinochloa crus-galli; conditions: for Plant response rating, Barnyardgrass (0 to 10 scale, 0 is no effect, 10 is complete control): Rate 62 g/ha, Pre-emergence; for Plant response rating, Barnyardgrass (0 to 10 scale, 0 is no effect, 10 is complete control) / Barnyardgrass plant response rating (0 to 10 scale, 0 is no effect, 10 is complete control): flood test species, visual evaluation after twelve to sixteen days; for Barnyardgrass plant response rating (0 to 10 scale, 0 is no effect, 10 is complete control): Rate 125 g/ha, under heading Pre-emergence
# Outline: (§2)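 Plants were grown to the 2-leaf stage before treatment with test chemical, then held in a greenhouse for twelve to sixteen days. Injury was visually rated against untreated controls on a 0–10 scale, where 0 is no effect and 10 is complete control.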
# duck salad = assay: Test B flood test duck salad; format: in vivo, Heteranthera limosa; conditions: for Plant response rating, Ducksalad (0 to 10 scale, 0 is no effect, 10 is complete control): Rate 62 g/ha, Pre-emergence; for Plant response rating, Ducksalad (0 to 10 scale, 0 is no effect, 10 is complete control) / Ducksalad plant response rating (0 to 10 scale, 0 is no effect, 10 is complete control): flood test species, visual evaluation after twelve to sixteen days; for Ducksalad plant response rating (0 to 10 scale, 0 is no effect, 10 is complete control): Rate 125 g/ha, under heading Pre-emergence
# Outline: as §2
# [3] = Rate 1000 g/ha, 0 to 100 scale where 0 is no effect and 100 is complete control
# [4] = Rate 1000 g/ha, 0 to 100 scale, 0 is no effect and 100 is complete control
# [5] = Postemergence, Rate 62 g/ha, scale 0 to 10, 0 is no effect, 10 is complete control
# [6] = Postemergence, Rate 125 g/ha, scale of 0 to 10 where 0 is no effect and 10 is complete control
# [7] = Postemergence, Rate 250 g/ha, scale 0 to 10, 0 no effect, 10 complete control
# [8] = Preemergence, Rate 62 g/ha, scale 0 to 10 (0 no effect, 10 complete control)
# [9] = Preemergence, Rate 125 g/ha, scale 0 to 10 (0 no effect, 10 complete control)
# [10] = Preemergence, Rate 250 g/ha, scale of 0 to 10 where 0 is no effect and 10 is complete control
# [11] = Preemergence, Rate 500 g/ha, scale 0 (no effect) to 10 (complete control)
# [12] = Rate 500 g/ha, Postemergence, scale 0 to 10, 0 no effect, 10 complete control
# [13] = Rate 500 g/ha, 0 to 100 scale where 0 is no effect and 100 is complete control
# [14] = Preemergence, Rate 62 g/ha, scale of 0 to 10 where 0 is no effect and 10 is complete control
# [15] = Preemergence, Rate 250 g/ha, scale 0 to 10, 0 is no effect, 10 is complete control
# [16] = Preemergence, Rate 500 g/ha, scale 0 to 10 (0 no effect, 10 complete control)
# [17] = Rate 62 g/ha, Postemergence, scale of 0 to 10 where 0 is no effect and 10 is complete control
# [18] = Rate 250 g/ha, Postemergence, scale 0 to 10, 0 is no effect, 10 is complete control
# [19] = Rate 500 g/ha, Postemergence, scale 0 to 10
# [20] = Rate 250 g/ha, Pre-emergence (flood test species), scale 0 to 10, 0 is no effect, 10 is complete control
# [21] = Rate 500 g/ha, Pre-emergence section of Table B, 0 to 10 scale (0 no effect, 10 complete control)
# [22] = Postemergence, Rate 250 g/ha, scale of 0 to 10, 0 is no effect, 10 is complete control
# [23] = Preemergence, Rate 250 g/ha, scale 0 to 10 (0 no effect, 10 complete control)
# [24] = Preemergence, Rate 500 g/ha, scale of 0 to 10 where 0 is no effect and 10 is complete control
# [25] = Preemergence, Rate 125 g/ha, scale of 0 to 10 where 0 is no effect and 10 is complete control
# [26] = Rate 500 g/ha, Postemergence, scale 0 to 10, 0 is no effect, 10 is complete control
compound,measurement,setting,value
Cc1ccccc1Cn1c(=O)on(C(=O)N(c2ccc(F)cc2)C(C)C)c1=O [Compound 88],"Plant response rating, Wild oat",wild oat; Rate 1000 g/ha,20
same,"Plant response rating, Wheat (winter)","winter wheat [1]; Rate 250 g/ha, 0 to 100 scale",0
same,"Plant response rating, Wheat (winter)",winter wheat [1]; [3],10
same,"Plant response rating, Green foxtail","green foxtail; Rate 250 g/ha, 0 to 100 scale",60
same,"Plant response rating, Green foxtail",green foxtail; [3],85
same,"Plant response rating, Wheat (winter)","winter wheat [2]; Rate 250 g/ha, 0 to 100 scale (0 no effect, 100 complete control)",0
same,"Plant response rating, Wheat (winter)",winter wheat [2]; [4],10
same,Crabgrass plant response rating,crabgrass; [5],0
same,Crabgrass plant response rating,crabgrass; [6],0
same,Crabgrass plant response rating,crabgrass; [7],9
same,Crabgrass plant response rating,crabgrass; [8],5
same,"Plant response rating, Crabgrass",crabgrass; [9],7
same,"Plant response rating, Crabgrass",crabgrass; [10],10
same,Crabgrass plant response rating,crabgrass; [11],10
same,Crabgrass plant response rating,crabgrass; [12],9
same,"Plant response rating, Barley (winter)","winter barley; Rate 250 g/ha, 0 to 100 scale",0
same,"Plant response rating, Barley (winter)",winter barley; [3],0
same,"Plant response rating, I. Ryegrass","Italian ryegrass; Rate 250 g/ha, 0 to 100 scale",10
same,"Plant response rating, I. Ryegrass",Italian ryegrass; [3],50
same,Nutsedge plant response rating,purple nutsedge; [5],0
same,Nutsedge plant response rating,purple nutsedge; [6],0
same,Nutsedge plant response rating,purple nutsedge; [7],0
same,Nutsedge plant response rating,purple nutsedge; [8],0
same,"Plant response rating, Nutsedge",purple nutsedge; [9],0
same,"Plant response rating, Nutsedge",purple nutsedge; [10],0
same,Nutsedge plant response rating,purple nutsedge; [11],0
same,Nutsedge plant response rating,purple nutsedge; [12],0
same,"Plant response rating, Blackgrass","blackgrass; Rate 250 g/ha, 0 to 100 scale",50
same,"Plant response rating, Blackgrass",blackgrass; [3],50
CC(C)N(C(=O)n1oc(=O)n(CC(F)(F)F)c1=O)c1ccc(F)cc1 [Compound 163],Wild oat plant response rating (0 to 100 scale),wild oat; Rate 250 g/ha,50
same,"Plant response rating, Wild oat",wild oat; Rate 500 g/ha,60
same,"Plant response rating, Wild oat",wild oat; Rate 1000 g/ha,70
same,Wheat (winter) plant response rating (0 to 100 scale),winter wheat [1]; Rate 250 g/ha,30
same,"Plant response rating, Wheat (winter)",winter wheat [1]; [3],55
same,Green foxtail plant response rating (0 to 100 scale),green foxtail; Rate 250 g/ha,100
same,"Plant response rating, Green foxtail",green foxtail; [13],100
same,"Plant response rating, Green foxtail",green foxtail; [3],100
same,"Plant response rating, Wheat (winter)",winter wheat [2]; [4],70
same,"Plant response rating, Wheat (winter)","winter wheat [2]; Rate 500 g/ha, 0 to 100 scale, 0 no effect, 100 complete control",50
same,Wheat (winter) plant response rating,"winter wheat [2]; Rate 250 g/ha, 0 to 100 scale where 0 is no effect and 100 is complete control",40
same,Crabgrass plant response rating,crabgrass; [6],7
same,Crabgrass plant response rating,crabgrass; [14],8
same,Crabgrass plant response rating,crabgrass; [15],8
same,Crabgrass plant response rating,crabgrass; [16],9
same,Crabgrass plant response rating,crabgrass; [17],6
same,"Plant response rating, Crabgrass",crabgrass; [18],8
same,Crabgrass plant response rating,crabgrass; [19],9
same,Barley (winter) plant response rating (0 to 100 scale),winter barley; Rate 250 g/ha,30
same,"Plant response rating, Barley (winter)",winter barley; [13],40
same,"Plant response rating, Barley (winter)",winter barley; [3],50
same,I. Ryegrass plant response rating (0 to 100 scale),Italian ryegrass; Rate 250 g/ha,30
same,"Plant response rating, I. Ryegrass",Italian ryegrass; [13],50
same,"Plant response rating, I. Ryegrass",Italian ryegrass; [3],60
same,Nutsedge plant response rating,purple nutsedge; [6],0
same,Nutsedge plant response rating,purple nutsedge; [14],0
same,Nutsedge plant response rating (0 to 10 scale),"purple nutsedge; Preemergence, Rate 125 g/ha, 0 is no effect, 10 is complete control",0
same,Nutsedge plant response rating,purple nutsedge; [15],0
same,Nutsedge plant response rating,purple nutsedge; [16],0
same,Nutsedge plant response rating,purple nutsedge; [17],0
same,"Plant response rating, Nutsedge",purple nutsedge; [18],0
same,Nutsedge plant response rating,purple nutsedge; [19],3
same,Blackgrass plant response rating (0 to 100 scale),blackgrass; Rate 250 g/ha,30
same,"Plant response rating, Blackgrass",blackgrass; [13],40
same,"Plant response rating, Blackgrass",blackgrass; [3],50
CC(C)N(C(=O)n1oc(=O)n(CC2CCCCO2)c1=O)c1ccc(F)cc1 (centres unmarked) [Compound 624],"Plant response rating, Barnyardgrass (0 to 10 scale, 0 is no effect, 10 is complete control)",bamyardgrass,0
same,"Barnyardgrass plant response rating (0 to 10 scale, 0 is no effect, 10 is complete control)",bamyardgrass,0
same,Barnyardgrass plant response rating,bamyardgrass; [20],0
same,Barnyardgrass plant response rating,bamyardgrass; [21],0
same,"Plant response rating, Ducksalad (0 to 10 scale, 0 is no effect, 10 is complete control)",duck salad,0
same,"Ducksalad plant response rating (0 to 10 scale, 0 is no effect, 10 is complete control)",duck salad,0
same,Ducksalad plant response rating,duck salad; [20],0
same,Ducksalad plant response rating,duck salad; [21],0
same,"Plant response rating, Crabgrass",crabgrass; [5],6
same,"Plant response rating, Crabgrass",crabgrass; [6],7
same,Crabgrass plant response rating,crabgrass; [22],7
same,Crabgrass plant response rating,crabgrass; [8],7
same,"Plant response rating, Crabgrass",crabgrass; [23],9
same,"Plant response rating, Crabgrass",crabgrass; [24],9
same,"Plant response rating, Nutsedge",purple nutsedge; [5],0
same,"Plant response rating, Nutsedge",purple nutsedge; [6],0
same,Nutsedge plant response rating,purple nutsedge; [22],0
same,"Plant response rating, Nutsedge","purple nutsedge; Postemergence, Rate 500 g/ha, scale of 0 to 10 where 0 is no effect and 10 is complete control",3
same,Nutsedge plant response rating,purple nutsedge; [8],0
same,Nutsedge plant response rating,purple nutsedge; [25],0
same,"Plant response rating, Nutsedge",purple nutsedge; [23],0
same,"Plant response rating, Nutsedge",purple nutsedge; [24],0
CCOC(Cn1c(=O)on(C(=O)N(c2ccccc2)C(C)C)c1=O)OCC [Compound 632],"Plant response rating, Barnyardgrass (0 to 10 scale, 0 is no effect, 10 is complete control)",bamyardgrass,0
same,"Barnyardgrass plant response rating (0 to 10 scale, 0 is no effect, 10 is complete control)",bamyardgrass,0
same,Barnyardgrass plant response rating,bamyardgrass; [20],0
same,Barnyardgrass plant response rating,bamyardgrass; [21],0
same,"Plant response rating, Ducksalad (0 to 10 scale, 0 is no effect, 10 is complete control)",duck salad,0
same,"Ducksalad plant response rating (0 to 10 scale, 0 is no effect, 10 is complete control)",duck salad,0
same,Ducksalad plant response rating,duck salad; [20],0
same,Ducksalad plant response rating,duck salad; [21],0
same,"Plant response rating, Crabgrass",crabgrass; [5],0
same,"Plant response rating, Crabgrass",crabgrass; [6],6
same,Crabgrass plant response rating,crabgrass; [22],8
same,Crabgrass plant response rating,crabgrass; [8],2
same,Crabgrass plant response rating,crabgrass; [25],7
same,"Plant response rating, Crabgrass",crabgrass; [23],8
same,"Plant response rating, Crabgrass",crabgrass; [24],9
same,"Plant response rating, Nutsedge",purple nutsedge; [5],0
same,"Plant response rating, Nutsedge",purple nutsedge; [6],0
same,Nutsedge plant response rating,purple nutsedge; [22],0
same,Nutsedge plant response rating,purple nutsedge; [8],0
same,Nutsedge plant response rating,purple nutsedge; [25],0
same,"Plant response rating, Nutsedge",purple nutsedge; [23],0
same,"Plant response rating, Nutsedge",purple nutsedge; [24],0
CC(C)N(C(=O)n1oc(=O)n(CCC(=O)N(C)C)c1=O)c1ccccc1 [Compound 671],"Plant response rating, Barnyardgrass (0 to 10 scale, 0 is no effect, 10 is complete control)",bamyardgrass,0
same,"Barnyardgrass plant response rating (0 to 10 scale, 0 is no effect, 10 is complete control)",bamyardgrass,0
same,Barnyardgrass plant response rating,bamyardgrass; [20],0
same,Barnyardgrass plant response rating,bamyardgrass; [21],0
same,"Plant response rating, Ducksalad (0 to 10 scale, 0 is no effect, 10 is complete control)",duck salad,0
same,"Ducksalad plant response rating (0 to 10 scale, 0 is no effect, 10 is complete control)",duck salad,0
same,Ducksalad plant response rating,duck salad; [20],0
same,Ducksalad plant response rating,duck salad; [21],0
same,"Plant response rating, Crabgrass",crabgrass; [5],1
same,Crabgrass plant response rating,crabgrass; [6],1
same,Crabgrass plant response rating,crabgrass; [22],8
same,Crabgrass plant response rating,crabgrass; [14],4
same,"Plant response rating, Crabgrass",crabgrass; [25],8
same,"Plant response rating, Crabgrass",crabgrass; [23],8
same,"Plant response rating, Crabgrass",crabgrass; [24],9
same,Crabgrass plant response rating,crabgrass; [26],9
same,"Plant response rating, Nutsedge",purple nutsedge; [5],0
same,Nutsedge plant response rating,purple nutsedge; [6],0
same,Nutsedge plant response rating,purple nutsedge; [14],0
same,"Plant response rating, Nutsedge",purple nutsedge; [25],2
same,"Plant response rating, Nutsedge",purple nutsedge; [23],6
same,"Plant response rating, Nutsedge",purple nutsedge; [24],6
same,Nutsedge plant response rating,purple nutsedge; [26],0
